{
  "source": "patent EP4714468A1",
  "about": "“METHOD FOR ADMINISTERING MODULATOR TARGETING S1PR1 AND S1PR4” (priority 2023, dated 2024)",
  "key": {"T lymphocytes": {"tested_on": "T lymphocytes", "settings": "through the suppression of T lymphocytes; cited from earlier work"}, "[1]": {"tested_on": "absolute lymphocyte count (ALC)", "assay": "Phase 1 clinical trial, single administration: pharmacodynamics by hematological test", "assay_type": "in vivo, healthy adult males", "experimental": "(§1) A randomized, double-blind, placebo-controlled, step-escalation, single- and multiple-dose phase 1 clinical trial was conducted to evaluate the safety, tolerability, and pharmacokinetic/pharmacodynamic characteristics of a compound of Chemical Formula 1 (NXC736) after oral administration to healthy adult males.\n(§2) The subjects were administered a single oral dose of the clinical trial drug on an empty stomach at around 9:00 AM on the day of administration after fasting for at least 10 hours. In the single-administration trial, the subjects were administered the drug and hospitalized for 8 days. After discharge, they were observed through outpatient visits until day 21. Blood was collected once before administration and at regular intervals after administration, and hematological tests were performed."}, "[2]": {"tested_on": "lymphocyte-mediated diseases", "settings": "alopecia areata, inflammatory bowel disease, interstitial fibrosis and tubular atrophy, focal segmental glomerulosclerosis; Korean patents; cited from earlier work"}, "[3]": {"tested_on": "Sphingosine-1 Phosphate (S1P) receptor", "settings": "background art statement; cited from earlier work"}, "[4]": {"assay": "Phase 1 clinical trial, single ascending dose (SAD): safety and tolerability", "design": "species or system healthy adult males", "settings": "in vivo", "experimental": "as §1\nThe clinical trial drug product is a white, round, film-coated tablet (1 mg, 3 mg tablet) or a yellow, round, film-coated tablet (10, 20 mg, 40 mg, 60 mg, 80 mg tablet) containing the active ingredient (main ingredient) NXC736 and excipients such as diluents, binders, disintegrants, fluidizing agents and glidants. The NXC736 clinical trial drug product was manufactured as an 84 mg film-coated tablet containing 1 mg or 3 mg of the main ingredient, or a 334 mg film-coated tablet containing 10 mg, 20 mg, 40 mg, 60 mg or 80 mg of the main ingredient, and it can be stored at room temperature (1 to 30°C) in an airtight container.\nIn this clinical trial, a total of 42 subjects were randomly assigned to a single-administration, and a total of 39 subjects completed the study according to the clinical trial protocol. A total of 33 subjects were assigned to a repeated-administration trial, and a total of 32 subjects completed the study according to the clinical trial protocol.\nas §2"}, "[5]": {"tested_on": "absolute lymphocyte count (ALC)", "assay": "Phase 1 clinical trial, repeated administration: pharmacodynamics by hematological test", "assay_type": "in vivo, healthy adult males", "experimental": "as §1\n(§3) The subjects fasted for at least 10 hours before the first administration. Afterwards, the clinical trial drug was administered orally twice a day for 13 days and once on day 14 in a fasting state at around 9:00 AM and 9:00 PM. The administration was performed twice a day for approximately 14 days, and the subjects were discharged on day 21 from the first administration and observed through outpatient visits until day 36. Blood was collected once before administration and at regular intervals after administration, and hematological tests were performed."}, "[6]": {"tested_on": "alopecia areata lesion area", "assay": "C3H/HeJ alopecia areata mouse model", "assay_type": "in vivo, C3H/HeJ mice", "settings": "3 mg/kg or 10 mg/kg oral twice a day, 12 weeks", "experimental": "The efficacy of NXC736 on alopecia areata was evaluated by using the alopecia areata mouse model C3H/HeJ (Jackson Lab, Saeron Bio).\nC3H/HeJ mice, 10 to 16 weeks of age, in which alopecia areata was not induced, were divided into two groups: a control group (sterile distilled water administration group) and an NXC736 administration experimental group, and 5 mice per group were randomly assigned. After the lymph node cells were proliferated and injected into the C3H/HeJ mice, the NXC736 administration experimental group was orally administered with 3 mg/kg or 10 mg/kg of NXC736, and the control group was orally administered with the same volume of sterile distilled water twice a day at the same time for 12 weeks. The alopecia areata lesion area and disease free ratio were measured at two-week intervals. The animal breeding room was maintained at a temperature of 23±3°C, a relative humidity of 50±10%, and a 12-hour light and dark cycle, and the experimental animals were bred in isolation boxes (ThreeShine) and were given experimental animal feed and water ad libitum.\nAfter 12 weeks, the circular alopecia lesion area was photographed and quantified by using the Image J program (Version 1.44p)."}, "[7]": {"assay": "Phase 1 clinical trial, single administration: pharmacokinetics", "assay_type": "in vivo, healthy adult males", "experimental": "as §1, §2"}, "[8]": {"assay": "Phase 1 clinical trial, repeated administration: pharmacokinetics", "assay_type": "in vivo, healthy adult males", "experimental": "as §1, §3"}, "[9]": {"settings": "in vivo"}, "[10]": {"tested_on": "lymphocytes in the peripheral blood stream", "assay": "Absolute lymphocyte count suppression in healthy rats", "assay_type": "in vivo, SD rats"}},
  "note": "Where two headings read alike, the source gives them in different places.",
  "data": [
    {"compound": "C=CC(=O)N1C[C@H](Nc2ncnc3[nH]ccc23)CC[C@@H]1C", "note": "[Ritlecitinib]", "values": [
      {"measurement": "therapeutic effect on alopecia areata", "setting": "T lymphocytes", "result": "show a therapeutic effect on alopecia areata"}
    ]},
    {"compound": "CCCCCCCCCCn1cc(CCC(N)(CO)CO)nn1", "note": "[NXC736]", "values": [
      {"measurement": "change in ALC", "setting": "[1]; single administration 1 mg", "result": 16, "unit": "%"},
      {"measurement": "change in ALC", "setting": "[1]; single administration 3 mg", "result": 27, "unit": "%"},
      {"measurement": "change in ALC", "setting": "[1]; single administration 10 mg", "result": 27, "unit": "%"},
      {"measurement": "change in ALC", "setting": "[1]; single administration 20 mg", "result": 25, "unit": "%"},
      {"measurement": "absolute lymphocyte count after administration compared to before administration", "setting": "[1]; single administration 40 mg", "result": "about 68%"},
      {"measurement": "absolute lymphocyte count after administration compared to before administration", "setting": "[1]; single administration 80 mg", "result": "about 54%"},
      {"measurement": "treatment of lymphocyte-mediated diseases in animal experiments", "setting": "[2]", "result": "effectively treat"},
      {"measurement": "binding selectivity among S1P receptor subtypes", "setting": "[3]", "result": "selectively binds to S1P1 and S1P4"},
      {"measurement": "adverse reactions (ADR) assessed as having a causal relationship with the investigational drug", "setting": "[4]", "result": 12},
      {"measurement": "adverse reactions (number of events)", "setting": "[4]", "result": 23},
      {"measurement": "decrease in heart rate after administration", "setting": "[4]", "result": "observed in most subjects administered NXC736"},
      {"measurement": "difference in frequency of adverse reactions between dose groups", "setting": "[4]", "result": "no significant difference in the frequency of adverse reactions between the dose groups"},
      {"measurement": "serious adverse reactions", "setting": "[4]", "result": "No serious adverse reactions were observed"},
      {"measurement": "severity and outcome of adverse reactions", "setting": "[4]", "result": "Most adverse reactions were mild and all recovered during the trial period"},
      {"measurement": "subjects with adverse reactions", "setting": "[4]", "result": 9},
      {"measurement": "change in ALC", "setting": "[5]; 20 mg twice daily, 14-day repeated administration", "result": "≤ 30", "unit": "%"},
      {"measurement": "ALC reduction effect", "setting": "[5]; 40 mg to 80 mg, repeated administrations twice a day", "result": "≥ 50", "unit": "%"},
      {"measurement": "absolute lymphocyte count decrease", "setting": "[5]; 60 mg twice-daily administration group or higher, 14 days", "result": "up to 70%"},
      {"measurement": "absolute lymphocyte count after administration compared to before administration", "setting": "[5]; repeated administrations 40 mg", "result": "about 43%"},
      {"measurement": "absolute lymphocyte count after administration compared to before administration", "setting": "[5]; repeated administrations 60 mg", "result": "about 32%"},
      {"measurement": "absolute lymphocyte count after administration compared to before administration", "setting": "[5]; repeated administrations 80 mg", "result": "about 36%"},
      {"measurement": "circular alopecia lesion area compared to control group", "setting": "[6]", "result": "effectively reduced"},
      {"measurement": "dose dependence of therapeutic effect on alopecia lesion area", "setting": "[6]", "result": "concentration-dependent therapeutic effect was observed"},
      {"measurement": "elimination in urine", "setting": "[7]", "result": "hardly eliminated in urine"},
      {"measurement": "half-life", "setting": "[7]; human, in vivo, po, read-out: average elimination half-life (converted)", "result": "~10", "unit": "h"},
      {"measurement": "Tmax", "setting": "[7]; human, plasma, po, read-out: time to reach peak plasma concentrations", "result": "~1", "unit": "h"},
      {"measurement": "accumulation at steady state compared to the first administration", "setting": "[8]; repeated administration", "result": "approximately twice"},
      {"measurement": "dose proportionality of Cmax,ss and AUCtau,ss", "setting": "[8]; repeated administrations", "result": "confirmed"},
      {"measurement": "serious adverse reactions", "setting": "[9]", "result": "No serious adverse reactions were observed"},
      {"measurement": "lymphocytes suppressed by", "setting": "[10]; 5 mg/kg oral twice a day, 4 hours after the first administration", "result": "up to 78%"},
      {"measurement": "lymphocytes suppressed by", "setting": "[10]; 5 mg/kg oral twice a day, 4 hours after the second administration (16 hours after the first)", "result": "approximately 90%"},
      {"measurement": "lymphocytes recovered to", "setting": "[10]; 5 mg/kg oral twice a day, 24 hours", "result": "approximately 50%"},
      {"measurement": "lymphocytes suppressed by", "setting": "[10]; 10 mg/kg oral twice a day, 4 hours after the first administration", "result": "up to 83%"},
      {"measurement": "lymphocytes suppressed by", "setting": "[10]; 10 mg/kg oral twice a day, 4 hours after the second administration (16 hours after the first)", "result": "up to 94%"},
      {"measurement": "lymphocyte suppression effect maintained", "setting": "[10]; 10 mg/kg oral twice a day, up to 24 hours", "result": "about 80%"},
      {"measurement": "lymphocyte suppression effect maintained", "setting": "[10]; 10 mg/kg oral twice a day, up to 36 hours", "result": "about 70%"},
      {"measurement": "lymphocytes suppressed by", "setting": "[10]; 20 mg/kg oral once a day, 12 hours", "result": "up to 92%"},
      {"measurement": "lymphocytes recovered to", "setting": "[10]; 20 mg/kg oral once a day, 24 hours", "result": 60, "unit": "%"},
      {"measurement": "lymphocytes recovered to", "setting": "[10]; 20 mg/kg oral once a day, 48 hours", "result": 100, "unit": "%"},
      {"measurement": "lymphocyte suppression effect, twice a day vs once a day", "setting": "[10]; 5 or 10 mg/kg BID vs 20 mg/kg QD", "result": "superior when administered twice a day even at a lower dose compared to when administered once a day"}
    ]}
  ]
}
